Test [1] has as its system MSS31 cells. Nature of the test: Cell cycle progression by BrdU flow cytometry. Type of test: cell-based, mouse. The note with it: 9 hours. As for the experimental part: Since the overexpression of the SBD in MSS31 cells caused DNA synthesis inhibition, we examined the effect of the NBD peptide on cell cycle progression by flow cytometry after treating the cells with various concentrations of the synthetic peptides (0–1.0 μg/well) complexed with atelocollagen for 9 hours.
Figure 8 Inhibition of cell cycle progression and cell growth by the NBD peptide. MSS31 cells were treated with atelocollagen alone or the NBD or the CBD peptide/atelocollagen complex in vitro. (a) Cell cycle progression. The cells were labeled with BrdU and then subjected to flow cytometry. (b) Cell growth. The values represent cell growth rate relative to that of control cells that is set to 100%. The NBD peptide inhibited the growth of MSS31 cells compared to the control cells (atelocollagen alone). Data represent the mean ± SD (n = 4), P < 0.01. TEXT PRINTED IN THE PICTURE: (a) NBD: S:13.2%; G1:70.7%; G2/M:9.6% | (a) CBD: S:32.1%; G1:55.4%; G2/M:8.9% | (a) peptide(−): S:36.7%; G1:49.6%; G2/M:9.7%
MSS31 cells treated with 1.0 μg/ml of the NBD peptide or the CBD peptide/atelocollagen were labeled with 10 μmol/l BrdU for 6 hours. Atelocollagen alone was used as a control. Flow cytometric analysis was carried out using the FITC BrdU Flow Kit (BD Biosciences Pharmigen, San Diego, CA) following the manufacturer’s instructions.

For test [2], the system named is new blood vessel formation in BALB/c nude mice. Nature of the test: Directed in vivo angiogenesis assay (DIVAA) in nude mice. Further details: species or system mouse. The settings on record: angioreactors with Afs (bFGF, VEGF, heparin), peptide (1 mg/ml) with atelocollagen, s.c. implant, 15 days, n = 3; NBD P < 0.01.
The test system of a further test is PC-3M-Luc cells. The test is described as follows: PC-3M-Luc cell growth in vitro. In kind it is cell-based, human. The protocol:
Caspase3/7 assays was performed with Apo-ONE Caspase-3/7 Assay
Reagent (Promega). No significant changes are observed.
F i g . […]
PC-3M-Luc cells were treated with atelocollagen alone or the NBD peptide/atelocollagen complex in vitro, and their growth rate was monitored.
The values represent cell growth rate relative to that of control cells that is […]
MSS31 cells were incubated with the peptide/atelocollagen complexes.
Isolation of total RNA and subsequent qRT-PCR analysis were carried out as described previously (30). The GAPDH gene was used as an internal control.
(a) Proangiogenic genes in NBD and CBD peptides-treated cells. (b)
Antiangiogenic genes in NBD and CBD peptides-treated cells.

For test [3], the system named is vinculin, integrin β1 and FAK in MSS31 cells. Nature of the test: Expression of vinculin, integrin β1 and FAK by western blot. Type of test: cell-based, mouse. The note with it: total cell lysates, vs control cells; 5 μg/well, 18 hours. The protocol:
Figure 7 Stimulation of the formation of focal contacts by the NBD peptide. MSS31 cells incubated with atelocollagen alone or the peptide/atelocollagen complexes were subjected to immunofluorescent staining and western blot analysis. (a) Formation of focal adhesions. The cells were immunostained with antivinculin or anti-integrin β1 antibody followed by Alexa Fluor 488-conjugated secondary antibody. F-actin was visualized with Atto 647N-Phalloidin. Nuclei were stained with DAPI. Scale bars: 50 μm. (b) Western blot analysis of focal adhesion proteins. Total cellular proteins were subjected to immunoblot analysis. (c) Relative expression level of vinculin (VCN), integrin β1 (ITGβ1) and p-FAK. The band intensity of VCN and ITGβ1 and p-FAK relative to that of β-actin and total FAK, respectively, was measured using ImageJ software and normalized to control cells.
MSS31 cells cultured in six-well plates were incubated with 5 μg/well of the NBD or the CBD peptide/atelocollagen complex or atelocollagen alone for 18 hours and were lysed in M-PER Mammarian Protein Extraction Reagent (Thermo Fisher Scientific, Waltham, MA) containing complete, EDTA-free, EASYpack (Roche Applied Science, Penzberg, Upper Bavaria, Germany) and Halt Phosphatase Inhibitor Cocktail (Thermo Fisher Scientific). The lysates was used for immunoblot analysis. […]

The subject of test [4] is MSS31 cells. The test is described as follows: Capillary formation (tube formation) on Matrigel. In kind it is cell-based, mouse.
Test [5] deals with S100A4-MetAP2 interaction. Nature of the test: In vitro GST pull-down binding assay S100A4-MetAP2. The note with it: [35S]MetAP2, GST/S100A4, 1 mmol/l CaCl2; peptide at 25-fold molar excess of MetAP2.
Test [6] relates to NMIIA (Ser1943) in MSS31 cells. The test is described as follows: NMIIA Ser1943 phosphorylation by western blot. Type of test: cell-based, mouse. The settings on record: 5 μg/well, 18 hours. As for the experimental part:
Figure 6 Stimulation of NMIIA phosphorylation and filament assembly by the NBD peptide. MSS31 cells incubated with atelocollagen alone or the peptide/atelocollagen complexes were subjected to western blot analysis and immunofluorescent staining. (a) Western blot analysis of NMIIA phosphorylation. Total cellular proteins were subjected to immunoblot analysis. The band intensity of p-NMIIA relative to that of total NMIIA was measured using ImageJ software and normalized to control cells. (b) NMIIA assembly. MSS31 cells were simultaneously incubated with rabbit polyclonal anti-S100A4 antibody and mouse monoclonal anti-NMIIA antibody followed by Alexa Fluor 488-conjugated goat antirabbit IgG and Alexa Fluor 594-conjugated goat antimouse IgG. Nuclei were stained with DAPI. Scale bars: 50 μm. (c) Blockade of S100A4-NMIIA interaction by the NBD peptide. MSS31 cells were immunostained as in a. White arrows and yellow arrows indicate colocalized areas and independently localized areas of S100A4 and NMIIA, respectively. Bars: 20 μm. TEXT PRINTED IN THE PICTURE: (a) NBD: p-NMIIA/total NMIIA: 1.78 | (a) CBD: p-NMIIA/total NMIIA: 0.66 […]

[7] abbreviates: 0–1.0 μg/well with atelocollagen.

A value given as a limit tells only on which side of the number the result lay.

For the substance “NBD: N-terminal 39 amino acid sequence of SBD, from Arg170 to Ileu208; corresponding to MetAP2 (170–208) (REAAEAHRQVRKYVMSWIKPGMTMIEICEKLEDCSRKLI)”, in the test with MSS31 cells [1] (setting [7]), the “effect on G2/M phase” value was “not significantly affected” and the “effect on cell cycle progression” value is “leads to cell cycle arrest in the G1/S phase”. For the same substance, the “cells in G2/M phase” value in the test with MSS31 cells [1] (atelocollagen complex, BrdU flow cytometry, representative study, without peptide 9.7%) is reported as 9.6%. In the test on MSS31 cells [1] (atelocollagen complex, BrdU flow cytometry, representative study, without peptide 36.7%), the “cells in S phase” value worked out at 13.2%. Besides, in the test on MSS31 cells [1] (atelocollagen complex, BrdU flow cytometry, representative study, without peptide 49.6%), the “cells in G1 phase” value came out at 70.7%. Also, the “in vivo angiogenesis (DIVAA)” value in test [2] is listed as “potently suppressed the angiogenic factors-induced angiogenesis”. Further, the “proliferation of PC-3 cells” value in the test with PC-3M-Luc cells (discussion wording, p53-null cells) is recorded as “did not influence the proliferation of PC-3 cells”. In the test on PC-3M-Luc cells (in vitro, NBD peptide/atelocollagen complex, vs untreated, Supplementary Figure S6), the “growth rate of PC-3M-Luc cells” value was “comparable growth rate to that of untreated cells”. Besides, in test [3], the “expression of vinculin, integrin β1 and FAK” value was “no significant difference in the expressions of vinculin, integrin β1 and FAK”. In addition, the “time at which inhibition of capillary formation is apparent” value with MSS31 cells [4] (after peptide loading, Supplementary Figure S4) was ≤ 6 h. In addition, in the test on MSS31 cells [4] (atelocollagen complex, 5 μg/well, Matrigel with 50 ng/ml HGF, 16 hours, n = 6, *P < 0.01), the “tube (capillary) formation” value was “severely impaired tube formation”. In addition, the “inhibition of S100A4-MetAP2 interaction (GST pull-down)” value in test [5] was “inhibited the binding as efficiently as SBD”. For the same substance, the “Ser1943 phosphorylation of NMIIA” value in test [6] (atelocollagen complex) is listed as “enhanced Ser1943 phosphorylation of NMIIA”. Further, in test [6] (band intensity, normalized to control cells (atelocollagen alone)), the “p-NMIIA/total NMIIA” value is 1.78.

The values are drawn from paper PMC4445002, “Efficient inhibition of tumor angiogenesis and growth by a synthetic peptide blocking S100A4-methionine aminopeptidase 2 interaction” (Molecular Therapy. Methods & Clinical Development, 2015).
